# How the values were obtained:
# L. monocytogenes 149 [1] = test: MIC for biofilm metabolic activity (MTT reduction assay); assay type: cell-based, Listeria monocytogenes; conditions: ≥80% inhibition, 24 h
# Experimental: (§1) Ten concentrations of NAC, RLs, and UA were tested to determine the minimum inhibitory concentration for planktonic growth, and subsequently, the six highest concentrations were applied on preformed biofilms to evaluate the biofilm eradication ability of the compounds. MIC was defined as the lowest substance concentration able to inhibit at least 80% of microbial growth (MICPC80 for planktonic cells, MICBC80 for further growth of biofilm cells), inhibit 80% of metabolic activity (MICBM80 for biofilm metabolic activity, MICMPB80 for metabolic activity of preformed biofilm), prevent biofilm formation by at least 80% (MICBF80 for biofilm formation), or reduce a preformed biofilm by at least 80% (MICBR80 for biofilm reduction). The results of MICs are summarized in Table 1 (planktonic cells) and Table 2 (biofilm-associated cells).
# (§2) The determination of MICs was performed according to Chlumsky et al.. Briefly, 96-well flat-bottomed microtiter plates were inoculated with 75 µL (for biofilm formation) or 100 µL (for preformed biofilm) of bacterial suspension (A625nm 0.08 to 0.1) in technical triplicates and were then carefully mixed with the dilution series of the test substances (24 h cultivation at 25 °C for S. Infantis, 37 °C for other strains) or were directly cultivated to preform biofilms (18 h). For a positive control of bacterial growth, the inoculum was mixed with a pure sterile medium. […] To evaluate planktonic cells growth (MICPC80) and further growth of biofilm cells (MICBC80), the optical density of the content of the microtiter plates was measured spectrophotometrically at 625 nm before and after 24 h (for biofilm formation) of cultivation or before and after additional 20 h incubation with the tested compound (for preformed biofilm). […] To evaluate the inhibition of biofilm formation (MICBF80) and reduction in preformed biofilms (MICBR80), biomass was quantified using crystal violet staining, and its metabolic activity (MICBM80 and MICMPB80) was estimated by using the MTT (thiazyl tetrazolium bromide, Sigma-Aldrich, USA) reduction assay, both measured spectrophotometrically at 595 nm.
# (§3) All inhibitions were calculated using the formula of Chlumsky et al. below (Equation (1)):(1) A625(595)nm inhibition (%)=A625(595)nm (control) – A625(595)nm(natural substance)/A625(595)nm (control)× 100 where A625(595)nm (control) is the absorbance of bacterial suspension/biofilm itself, and A625(595)nm(natural substance) is the absorbance of the bacterial suspension/biofilm with the added natural substance (NAC, RLs, and UA).
# (§4) When the minimum inhibitory concentration could not be determined, the MIC was established as >the highest tested concentration for NAC, RLs, and UA.
# L. monocytogenes 164 [2] = test: as above; assay type: cell-based, Listeria monocytogenes; conditions: ≥80% inhibition, 24 h
# Experimental: as §1, §2, §3, §4
# S. Infantis S59 [3] = test: MIC for reduction of preformed biofilm (crystal violet staining); assay type: cell-based, Salmonella enterica Infantis; conditions: for MICBR80: ≥80% reduction of preformed biofilm (18 h), 20 h with substance
# Experimental: as §1
# (§5) The determination of MICs was performed according to Chlumsky et al.. Briefly, 96-well flat-bottomed microtiter plates were inoculated with 75 µL (for biofilm formation) or 100 µL (for preformed biofilm) of bacterial suspension (A625nm 0.08 to 0.1) in technical triplicates and were then carefully mixed with the dilution series of the test substances (24 h cultivation at 25 °C for S. Infantis, 37 °C for other strains) or were directly cultivated to preform biofilms (18 h). For a positive control of bacterial growth, the inoculum was mixed with a pure sterile medium. Furthermore, the sterile medium was included in the plate as a marker of potential microbial contamination. To evaluate planktonic cells growth (MICPC80) and further growth of biofilm cells (MICBC80), the optical density of the content of the microtiter plates was measured spectrophotometrically at 625 nm before and after 24 h (for biofilm formation) of cultivation or before and after additional 20 h incubation with the tested compound (for preformed biofilm). The difference of A625nm was considered as a measure of the ability of cells to grow in the presence of the tested substances. To evaluate the inhibition of biofilm formation (MICBF80) and reduction in preformed biofilms (MICBR80), biomass was quantified using crystal violet staining, and its metabolic activity (MICBM80 and MICMPB80) was estimated by using the MTT (thiazyl tetrazolium bromide, Sigma-Aldrich, USA) reduction assay, both measured spectrophotometrically at 595 nm.
# as §3, §4
# S. Infantis S13 [4] = test: as above; assay type: cell-based, Salmonella enterica Infantis; conditions: for MICBR80: ≥80% reduction of preformed biofilm (18 h), 20 h with substance
# Experimental: as §1, §5, §3, §4
# [5] = system: S. Enteritidis ATCC 13076; test: MIC for biofilm metabolic activity (MTT reduction assay); assay type: cell-based, Salmonella enterica Enteritidis; conditions: for MICBM80: ≥80% inhibition, 24 h
# Experimental: as §1
# (§6) The determination of MICs was performed according to Chlumsky et al.. […] To evaluate planktonic cells growth (MICPC80) and further growth of biofilm cells (MICBC80), the optical density of the content of the microtiter plates was measured spectrophotometrically at 625 nm before and after 24 h (for biofilm formation) of cultivation or before and after additional 20 h incubation with the tested compound (for preformed biofilm). […] To evaluate the inhibition of biofilm formation (MICBF80) and reduction in preformed biofilms (MICBR80), biomass was quantified using crystal violet staining, and its metabolic activity (MICBM80 and MICMPB80) was estimated by using the MTT (thiazyl tetrazolium bromide, Sigma-Aldrich, USA) reduction assay, both measured spectrophotometrically at 595 nm.
# as §3, with “UA). […]” for “UA).”
# S. Infantis S59 [6] = test: MIC for planktonic cell growth (A625nm); assay type: cell-based, Salmonella enterica Infantis; conditions: for MICPC80: ≥80% inhibition, 24 h
# Experimental: as §1, §5, §3, §4
# S. Infantis S13 [7] = test: MIC for planktonic cell growth (A625nm); assay type: cell-based, Salmonella enterica Infantis; conditions: for MICPC80: ≥80% inhibition, 24 h
# Experimental: as §1, §5, §3, §4
# [8] = system: S. Enteritidis ATCC 13076; test: MIC for biofilm formation (crystal violet staining); assay type: cell-based, Salmonella enterica Enteritidis; conditions: for MICBF80: ≥80% prevention, 24 h
# Experimental: as §1, §6
# as §3, with “UA). […]” for “UA).”
# S. aureus 816 = test: MIC for metabolic activity of preformed biofilm (MTT reduction assay); assay type: cell-based, Staphylococcus aureus; conditions: for MICMPB80: ≥80% inhibition, 20 h with substance
# Experimental: as §1, §5, §3, §4
# S. aureus 1241 = test: as above; assay type: cell-based, Staphylococcus aureus; conditions: ≥80% inhibition, 20 h with substance
# Experimental: as §1, §5, §3, §4
# S. Infantis S59 [9] = test: MIC for further growth of biofilm cells, preformed biofilm (A625nm); assay type: cell-based, Salmonella enterica Infantis; conditions: for MICBC80: ≥80% inhibition, 18 h preformed biofilm, 20 h with substance
# Experimental: as §1, §5, §3, §4
# S. Infantis S13 [10] = test: as above; assay type: cell-based, Salmonella enterica Infantis; conditions: for MICBC80: ≥80% inhibition, 18 h preformed biofilm, 20 h with substance
# Experimental: as §1, §5, §3, §4
# L. monocytogenes 149 [11] = test: MIC for planktonic cell growth (A625nm); assay type: cell-based, Listeria monocytogenes; conditions: ≥80% inhibition, 24 h
# Experimental: as §1, §2, §3, §4
# L. monocytogenes 164 [12] = test: MIC for planktonic cell growth (A625nm); assay type: cell-based, Listeria monocytogenes; conditions: ≥80% inhibition, 24 h
# Experimental: as §1, §2, §3, §4
# E. coli 693/17 = test: MIC for planktonic cell growth (A625nm); assay type: cell-based, Escherichia coli; conditions: for MICPC80: ≥80% inhibition, 24 h
# Experimental: as §1, §5, §3, §4
# E. coli 683/17 = test: MIC for planktonic cell growth (A625nm); assay type: cell-based, Escherichia coli; conditions: for MICPC80: ≥80% inhibition, 24 h
# Experimental: as §1, §5, §3, §4
# [13] = preformed biofilm, within tested concentrations
SMILES,MICBM80 (L. monocytogenes 149 [1]),MICBM80 (L. monocytogenes 164 [2]) [µg/mL],MICBR80 (S. Infantis S59 [3]),MICBR80 (S. Infantis S13 [4]),MICBM80 [5],MICPC80 (S. Infantis S59 [6]) [µg/mL],MICPC80 (S. Infantis S13 [7]) [µg/mL],MICBF80 [8],MICMPB80 (S. aureus 816),MICMPB80 (S. aureus 1241) [µg/mL],MICBC80 (S. Infantis S59 [9]),MICBC80 (S. Infantis S13 [10]) [µg/mL],MICPC80 (L. monocytogenes 149 [11]) [µg/mL],MICPC80 (L. monocytogenes 164 [12]) [µg/mL],MICPC80 (E. coli 693/17) [µg/mL],MICPC80 (E. coli 683/17) [µg/mL],other results
"CC(=O)N[C@@H](CS)C(=O)O [NAC, N-Acetyl-L-cysteine]","12,500 µg/mL",6250,"100,000 µg/mL","12,500 µg/mL","12,500 µg/mL",6250,6250,"12,500 µg/mL","12,500 µg/mL",6250,"12,500 µg/mL",6250,3130,6250,6250,3130,–
"CC(=O)c1c(O)c(C)c(O)c2c1OC1=CC(=O)C(C(C)=O)C(=O)C12C (single isomer, unassigned; (+)) [UA, (+)-usnic acid]",1.96 µg/mL,1.96,> 31.3 µg/mL,> 31.3 µg/mL,> 31.3 µg/mL,> 31.3,> 31.3,> 31.3 µg/mL,> 31.3 µg/mL,3.91,> 31.3 µg/mL,> 31.3,0.98,1.96,> 31.3,> 31.3,"maximal achieved inhibition (MICBR80 not reached), biofilm reduction (S. Infantis S59 [3]; [13]): 21%; maximal achieved inhibition (MICBR80 not reached), biofilm reduction (S. Infantis S13 [4]; [13]): 30%; maximal achieved inhibition (MICBM80 not reached) ([5]; within tested concentrations): 45%; maximal achieved inhibition (MICPC80 not reached) (S. Infantis S59 [6]; within tested concentrations): 31%; maximal achieved inhibition (MICPC80 not reached) (S. Infantis S13 [7]; within tested concentrations): 25%; maximal achieved inhibition (MICBF80 not reached) ([8]; within tested concentrations): 25%; maximal achieved inhibition (MICMPB80 not reached) (S. aureus 816; within tested concentrations): 67%; maximal achieved inhibition (MICBC80 not reached) (S. Infantis S59 [9]; within tested concentrations): 31%; maximal achieved inhibition (MICBC80 not reached) (S. Infantis S13 [10]; within tested concentrations): 33%; maximal achieved inhibition (MICPC80 not reached) (E. coli 693/17; within tested concentrations): 40%; maximal achieved inhibition (MICPC80 not reached) (E. coli 683/17; within tested concentrations): 20%"
